# Activity calls are given as the source filed them.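 The calls were made as follows: active = compounds whose EC50, the dose giving half of full IDE activation, is 100 µM or lower; inactive = EC50 above 100 µM or not measured.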
# Target: Insulin-degrading enzyme (Homo sapiens) (UniProt P14735)
# Test: WT IDE enzyme activation, cell-free – biochemical, fluorescence polarization, run by assay provider, counter-screen for IDE activator project, late-stage follow-up (AID 624043)
# Details: recombinant IDE, FAbetaB cleavage
# Chain of Insulin-degrading enzyme (Homo sapiens) (P14735 whole entry, looked up): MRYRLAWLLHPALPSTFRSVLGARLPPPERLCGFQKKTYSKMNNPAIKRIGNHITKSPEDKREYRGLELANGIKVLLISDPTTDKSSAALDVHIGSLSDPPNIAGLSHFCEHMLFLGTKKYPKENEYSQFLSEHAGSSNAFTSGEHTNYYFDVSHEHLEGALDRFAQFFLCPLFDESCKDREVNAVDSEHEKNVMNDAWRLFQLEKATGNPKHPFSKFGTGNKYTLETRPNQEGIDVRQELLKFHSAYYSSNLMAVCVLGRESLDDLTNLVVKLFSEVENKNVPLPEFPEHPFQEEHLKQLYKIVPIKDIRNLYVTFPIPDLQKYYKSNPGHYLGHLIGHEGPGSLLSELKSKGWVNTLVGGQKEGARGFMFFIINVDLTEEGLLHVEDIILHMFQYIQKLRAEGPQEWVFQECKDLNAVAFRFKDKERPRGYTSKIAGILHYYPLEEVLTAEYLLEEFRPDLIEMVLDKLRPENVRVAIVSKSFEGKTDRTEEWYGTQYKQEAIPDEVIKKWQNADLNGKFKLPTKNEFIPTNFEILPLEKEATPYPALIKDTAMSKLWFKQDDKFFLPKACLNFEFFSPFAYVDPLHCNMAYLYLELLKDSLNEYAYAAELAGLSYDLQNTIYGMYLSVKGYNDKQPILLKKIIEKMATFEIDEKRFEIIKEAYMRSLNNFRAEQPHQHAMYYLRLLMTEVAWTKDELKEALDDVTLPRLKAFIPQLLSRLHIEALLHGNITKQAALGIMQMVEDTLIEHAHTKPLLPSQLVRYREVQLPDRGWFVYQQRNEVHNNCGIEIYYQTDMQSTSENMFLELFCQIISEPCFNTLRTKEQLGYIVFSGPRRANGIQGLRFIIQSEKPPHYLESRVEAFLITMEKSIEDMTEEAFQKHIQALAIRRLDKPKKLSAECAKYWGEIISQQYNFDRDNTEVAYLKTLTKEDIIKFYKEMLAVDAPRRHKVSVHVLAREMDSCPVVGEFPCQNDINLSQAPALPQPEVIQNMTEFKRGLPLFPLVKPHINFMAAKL
row,EC50,SMILES
1,> 15 µM (inactive),CC(C)CCn1nnnc1C(C(C)C)N1CCN(c2ccccc2)CC1 (stereo not drawn)
2,> 15 µM (inactive),CCC(c1nnnn1CCC(C)C)N1CCN(c2ccccc2)CC1 (stereo not drawn)
3,> 15 µM (inactive),CC(C)CCn1nnnc1CN1CCN(c2ccccc2F)CC1

# Source: PubChem BioAssay AID624043 (The Scripps Research Institute Molecular Screening Center, 2012)
